Read-outs that look alike come from different tables or passages of the source. Some results are limits rather than exact numbers.

One experiment concerns the target human CB1 receptors (Homo sapiens (Human), UniProt P21554). The experiment in a line: functional cAMP assay, CHO cells expressing human CB1. In kind it is cell-based. The essentials:
(§1)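 CHO-hCB1/hCB2 cells, KRB + 1 mM IBMX preincubation 30 min 30 °C; cpd 30 min 30 °C; lysis + TR-FRET cAMP detection, 2 h RT; cAMP from std curve; EC50.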
A general note: cAMP levels reflect the balance of adenylyl cyclase and phosphodiesterase activity.

In a further experiment the target is human CB2 receptors (Homo sapiens (Human), UniProt P34972). Nature of the experiment: functional cAMP assay, CHO cells expressing human CB2. In kind it is cell-based. The essentials:
as §1

Setting [1] is: functional cAMP assay, CHO cells expressing human CB1; read-out: Human CB1 EC50.
The mark [2] stands for this setting: Human CB1 EC50 (uM), functional cAMP assay, CHO cells expressing human CB1.
Where [3] appears, read: read-out: Human CB1 EC50; functional cAMP assay, CHO cells expressing human CB1.

Sequence of human CB1 receptors (P21554 whole entry): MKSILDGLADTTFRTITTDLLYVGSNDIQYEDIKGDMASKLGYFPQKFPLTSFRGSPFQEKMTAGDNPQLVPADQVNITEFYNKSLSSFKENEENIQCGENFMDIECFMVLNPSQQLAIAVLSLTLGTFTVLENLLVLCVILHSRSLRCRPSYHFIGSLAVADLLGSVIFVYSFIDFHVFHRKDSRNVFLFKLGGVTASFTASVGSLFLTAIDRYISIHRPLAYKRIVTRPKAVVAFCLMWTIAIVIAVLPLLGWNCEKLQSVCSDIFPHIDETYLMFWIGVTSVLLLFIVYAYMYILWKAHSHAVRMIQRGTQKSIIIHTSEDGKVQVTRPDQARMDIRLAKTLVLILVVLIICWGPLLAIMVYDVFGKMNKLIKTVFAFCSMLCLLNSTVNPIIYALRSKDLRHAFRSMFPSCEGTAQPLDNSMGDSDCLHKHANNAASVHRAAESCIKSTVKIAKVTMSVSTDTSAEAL
Sequence of human CB2 receptors (P34972 whole entry): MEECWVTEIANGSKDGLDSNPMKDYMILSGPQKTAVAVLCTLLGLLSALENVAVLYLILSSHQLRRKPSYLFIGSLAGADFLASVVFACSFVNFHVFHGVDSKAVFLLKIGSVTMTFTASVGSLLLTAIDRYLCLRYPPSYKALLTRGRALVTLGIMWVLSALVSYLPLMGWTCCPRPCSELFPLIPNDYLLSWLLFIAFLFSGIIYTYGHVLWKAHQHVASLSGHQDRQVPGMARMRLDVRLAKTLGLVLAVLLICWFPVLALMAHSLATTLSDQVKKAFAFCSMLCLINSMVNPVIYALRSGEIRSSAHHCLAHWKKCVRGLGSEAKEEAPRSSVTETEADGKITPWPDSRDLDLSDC

In the case of `CC(C)[C@@](C)(CO)NC(=O)c1cc(OCC2CC2)c(Cl)cn1` [Example 10, 5-Chloro-4-cyclopropylmethoxy-pyridine-2-carboxylic acid ((S)-1-hydroxymethyl-1,2-dimethyl-propyl)-amide], the EC50 (commonly the concentration giving half of the maximal effect) at human CB1 receptors (setting [1]) was above 10 µM; at human CB2 receptors (read-out: Human CB2 EC50), 0.0119 µM.

`Cc1nc([C@@](C)(NC(=O)c2cc(OCC(F)(F)F)c(N3CC(F)(F)C3)cn2)C2CC2)no1` (single isomer, unassigned) [Example 88, 5-(3,3-Difluoro-azetidin-1-yl)-4-(2,2,2-trifluoro-ethoxy)-pyridine-2-carboxylic acid [1-cyclopropyl-1-(5-methyl-[1,2,4]oxadiazol-3-yl)-ethyl]-amide]: the EC50 on human CB1 receptors (setting [2]) is 1.79 µM; on human CB2 receptors (Human CB2 EC50 (uM)) it was 0.0105 µM.

Consider `Cc1nc(C(C)(CC(C)(C)C)NC(=O)c2cc(OCC(F)(F)F)c(Cl)cn2)no1` (stereo not shown) [Example 83, 5-Chloro-4-(2,2,2-trifluoro-ethoxy)-pyridine-2-carboxylic acid [1,3,3-trimethyl-1-(5-methyl-[1,2,4]oxadiazol-3-yl)-butyl]-amide], for which the EC50 was above 10 µM on human CB1 receptors (setting [1]) and 0.025 µM at human CB2 receptors (read-out: Human CB2 EC50).

Regarding `Cc1nc(C(NC(=O)c2cc(OCC(F)(F)F)c(C3CC3)cn2)C(C)(C)C)no1` (single isomer, unassigned) [Example 212, 5-cyclopropyl-N-[2,2-dimethyl-1-(5-methyl-1,2,4-oxadiazol-3-yl)propyl]-4-(2,2,2-trifluoroethoxy)pyridine-2-carboxamide], the EC50 was above 10 µM at human CB1 receptors (setting [3]) and 0.005 µM on human CB2 receptors (Human CB2 EC50 (uM)).

Turning to `Cc1nnc(C(C)(CC2CC2)NC(=O)c2cc(OCC(F)(F)F)c(C3CC3)cn2)o1` (stereo not shown) [Example 173, 5-cyclopropyl-N-[1-cyclopropyl-2-(5-methyl-1,3,4-oxadiazol-2-yl)propan-2-yl]-4-(2,2,2-trifluoroethoxy)pyridine-2-carboxamide], the EC50 at human CB1 receptors (setting [1]) was above 10 µM; at human CB2 receptors (read-out: Human CB2 EC50) it was 0.0544 µM.

With `O=C(NC(CCO)C1CC1)c1cc(OCC2CC2)c(Cl)cn1` (stereo not shown) [Example 19, 5-Chloro-4-cyclopropylmethoxy-pyridine-2-carboxylic acid (1-cyclopropyl-3-hydroxy-propyl)-amide], the EC50 at human CB1 receptors (setting [1]) was above 10 µM; at human CB2 receptors (read-out: Human CB2 EC50), 0.0615 µM.

Take `Cc1nc(C(C)(CC2CC2)NC(=O)c2cc(OCCF)c(C3CC3)cn2)no1` (stereo not shown) [Example 146, 5-cyclopropyl-N-[1-cyclopropyl-2-(5-methyl-1,2,4-oxadiazol-3-yl)propan-2-yl]-4-(2-fluoroethoxy)pyridine-2-carboxamide]: the EC50 at human CB1 receptors (setting [1]) is above 10 µM; at human CB2 receptors (read-out: Human CB2 EC50), 0.0018 µM.

With `CC(C)(C)C(NC(=O)c1cc(OCC2CC2)c(N2CC(F)(F)C2)cn1)C(N)=O` (stereo not shown) [Example 257, N-(1-amino-3,3-dimethyl-1-oxobutan-2-yl)-4-(cyclopropylmethoxy)-5-(3,3-difluoroazetidin-1-yl)pyridine-2-carboxamide], the values for the EC50 on human CB1 receptors (setting [1]) and on human CB2 receptors (read-out: Human CB2 EC50) were above 10 µM and 0.003 µM, respectively.

For the compound `CC(CF)Oc1cc(C(=O)NC(C)(CC(N)=O)C2CC2)ncc1C1CC1` (single isomer, unassigned) [Example 302, N-(4-amino-2-cyclopropyl-4-oxobutan-2-yl)-5-cyclopropyl-4-(1-fluoropropan-2-yloxy)picolinamide], the EC50 on human CB1 receptors (setting [2]) was found to be 0.869 µM; on human CB2 receptors (Human CB2 EC50 (uM)) it was 0.001 µM.

Take `Cc1nc(C(NC(=O)c2cc(O[C@@H](C)C(F)(F)F)c(C3CC3)cn2)C2(C)COC2)no1` (stereo partly drawn) [Example 255, 5-cyclopropyl-N-[(5-methyl-1,2,4-oxadiazol-3-yl)-(3-methyloxetan-3-yl)methyl]-4-[(2S)-1,1,1-trifluoropropan-2-yl]oxypyridine-2-carboxamide]: the EC50 on human CB1 receptors (setting [1]) was above 10 µM; at human CB2 receptors (read-out: Human CB2 EC50) it was 0.0067 µM.

In the case of `O=C(N[C@@H](c1cccnc1)C(F)(F)F)c1cc(OCc2ccc(F)cc2)c(Cl)cn1` [Example 40, 5-Chloro-4-(4-fluoro-benzyloxy)-pyridine-2-carboxylic acid ((S)-2,2,2-trifluoro-1-pyridin-3-yl-ethyl)-amide], the EC50 was 0.0901 µM at human CB1 receptors (setting [1]) and 0.005 µM at human CB2 receptors (read-out: Human CB2 EC50).

Consider `Cc1nc(C(C)(NC(=O)c2cc(OCC(F)(F)F)c(C3(F)CCC3)cn2)C2CC2)no1` (single isomer, unassigned) [Example 306, N-(1-cyclopropyl-1-(5-methyl-1,2,4-oxadiazol-3-yl)ethyl)-5-(1-fluorocyclobutyl)-4-(2,2,2-trifluoroethoxy)picolinamide], for which the EC50 was above 10 µM at human CB1 receptors (setting [2]) and 0.0118 µM at human CB2 receptors (Human CB2 EC50 (uM)).

Turning to `Cc1nc(C(C)(CC2CC2)NC(=O)c2cc(OC(C)CF)c(C3CC3)cn2)no1` (single isomer, unassigned) [Example 289, 5-cyclopropyl-N-(1-cyclopropyl-2-(5-methyl-1,2,4-oxadiazol-3-yl)propan-2-yl)-4-(1-fluoropropan-2-yloxy)picolinamide], the EC50 on human CB1 receptors (setting [3]) is above 10 µM; on human CB2 receptors (read-out: Human CB2 EC50) it was 0.001 µM.

As to `O=C(N[C@H](c1ccccn1)C(F)(F)F)c1cc(OCC2CC2)c(Cl)cn1` [Example 16, (+)-5-Chloro-4-cyclopropylmethoxy-pyridine-2-carboxylic acid (2,2,2-trifluoro-1-pyridin-2-yl-ethyl)-amide], the values for the EC50 at human CB1 receptors (setting [1]) and on human CB2 receptors (read-out: Human CB2 EC50) were 0.815 µM and 0.0031 µM, respectively.

In the case of `CNC(=O)C(C)(NC(=O)c1cc(O[C@@H](C)C(F)(F)F)c(C2(F)COC2)cn1)c1noc(C)n1` (stereo partly drawn) [Example 183, 5-(3-fluorooxetan-3-yl)-N-[1-(methylamino)-2-(5-methyl-1,2,4-oxadiazol-3-yl)-1-oxopropan-2-yl]-4-[(2S)-1,1,1-trifluoropropan-2-yl]oxypyridine-2-carboxamide], the EC50 on human CB1 receptors (setting [1]) was above 10 µM; on human CB2 receptors (read-out: Human CB2 EC50), 0.917 µM.

Take `CNC(=O)[C@@H](NC(=O)c1cc(O[C@@H](C)C(F)(F)F)c(C2(F)COC2)cn1)C(C)(C)C` [Example 172, N-[(2S)-3,3-dimethyl-1-(methylamino)-1-oxobutan-2-yl]-5-(3-fluorooxetan-3-yl)-4-[(2S)-1,1,1-trifluoropropan-2-yl]oxypyridine-2-carboxamide]: the EC50 is above 10 µM at human CB1 receptors (setting [1]) and 0.0329 µM on human CB2 receptors (read-out: Human CB2 EC50).

Take `C[C@H](Oc1cc(C(=O)NC(C)(CC(N)=O)C2CC2)ncc1C1(F)COC1)C(F)(F)F` (single isomer, unassigned) [Example 277]: the EC50 was above 10 µM on human CB1 receptors (setting [2]) and 0.0431 µM at human CB2 receptors (Human CB2 EC50 (uM)).

For the compound `CC(C)(C)C(NC(=O)c1cc(OCC(F)(F)F)c(C2CC2)cn1)c1noc(N)n1` (single isomer, unassigned) [Example 226, N-[1-(5-amino-1,2,4-oxadiazol-3-yl)-2,2-dimethylpropyl]-5-cyclopropyl-4-(2,2,2-trifluoroethoxy)pyridine-2-carboxamide], the EC50 on human CB1 receptors (setting [2]) is above 10 µM; on human CB2 receptors (Human CB2 EC50 (uM)), 0.0065 µM.

`Cc1nc(C(C)(CC2CC2)NC(=O)c2cc(O[C@@H](C)C(F)(F)F)c(C3CC3)cn2)no1` (stereo partly drawn) [Example 101, 5-Cyclopropyl-4-((S)-2,2,2-trifluoro-1-methyl-ethoxy)-pyridine-2-carboxylic acid [2-cyclopropyl-1-methyl-1-(5-methyl-[1,2,4]oxadiazol-3-yl)-ethyl]-amide]: the EC50 at human CB1 receptors (setting [1]) was 0.21 µM; at human CB2 receptors (read-out: Human CB2 EC50), 0.0007 µM.

`CC(C)C[C@H](NC(=O)c1cc(OCC2CC2)c(Br)cn1)C(N)=O` [Example 9, 5-Bromo-4-cyclopropylmethoxy-pyridine-2-carboxylic acid ((S)-1-carbamoyl-3-methyl-butyl)-amide]: the values for the EC50 on human CB1 receptors (setting [1]) and on human CB2 receptors (read-out: Human CB2 EC50) were above 10 µM and 0.0329 µM, respectively.

Regarding `C[C@H](Oc1cc(C(=O)NC(C(N)=O)C(C)(C)C)ncc1C1CC1)C(F)(F)F` (stereo partly drawn) [Example 240, N-(1-amino-3,3-dimethyl-1-oxobutan-2-yl)-5-cyclopropyl-4-[(2S)-1,1,1-trifluoropropan-2-yl]oxypyridine-2-carboxamide], the EC50 was above 10 µM on human CB1 receptors (setting [1]) and 0.0552 µM at human CB2 receptors (read-out: Human CB2 EC50).

On to `Cc1nc(C(C)(CC2CC2)NC(=O)c2cc(OCC(F)(F)F)c(C3(F)COC3)cn2)no1` (single isomer, unassigned) [Example 136, N-[1-cyclopropyl-2-(5-methyl-1,2,4-oxadiazol-3-yl)propan-2-yl]-5-(3-fluorooxetan-3-yl)-4-(2,2,2-trifluoroethoxy)pyridine-2-carboxamide], for which the EC50 at human CB1 receptors (setting [3]) is above 10 µM; at human CB2 receptors (Human CB2 EC50 (uM)), 0.125 µM.

Turning to `Cc1nc(C(C)(CS(C)(=O)=O)NC(=O)c2cc(OC(C)CF)c(C3CC3)cn2)no1` (single isomer, unassigned) [Example 297, 5-cyclopropyl-4-(1-fluoropropan-2-yloxy)-N-(2-(5-methyl-1,2,4-oxadiazol-3-yl)-1-(methylsulfonyl)propan-2-yl)picolinamide], the EC50 was above 10 µM at human CB1 receptors (setting [3]) and 0.0032 µM on human CB2 receptors (read-out: Human CB2 EC50).

Take `C[C@H](Oc1cc(C(=O)NC(C(=O)N2CCC2)C(C)(C)C)ncc1C1CC1)C(F)(F)F` (stereo partly drawn) [Example 202, N-[1-(azetidin-1-yl)-3,3-dimethyl-1-oxobutan-2-yl]-5-cyclopropyl-4-[(2S)-1,1,1-trifluoropropan-2-yl]oxypyridine-2-carboxamide]: the EC50 is above 10 µM on human CB1 receptors (setting [1]) and 0.0022 µM on human CB2 receptors (read-out: Human CB2 EC50).

Consider `Cc1nc(C(C)(CC2CC2)NC(=O)c2cc(OCC(F)(F)F)c(N3CC(F)(F)C3)cn2)no1` (stereo not shown) [Example 90, 5-(3,3-Difluoro-azetidin-1-yl)-4-(2,2,2-trifluoro-ethoxy)-pyridine-2-carboxylic acid [2-cyclopropyl-1-methyl-1-(5-methyl-[1,2,4]oxadiazol-3-yl)-ethyl]-amide], for which the figures for the EC50 at human CB1 receptors (setting [1]) and at human CB2 receptors (read-out: Human CB2 EC50) were above 10 µM and 0.0177 µM, respectively.

With `Cc1cnc(C(C)(CC2CC2)NC(=O)c2cc(OCC(F)(F)F)c(C3CC3)cn2)s1` (stereo not shown) [Example 177, 5-cyclopropyl-N-[1-cyclopropyl-2-(5-methyl-1,3-thiazol-2-yl)propan-2-yl]-4-(2,2,2-trifluoroethoxy)pyridine-2-carboxamide], the EC50 was above 10 µM on human CB1 receptors (setting [1]) and 0.0124 µM on human CB2 receptors (read-out: Human CB2 EC50).

These data come from patent US9409866B2, “Pyridine-2-amides useful as CB2 agonists” (Hoffmann-La Roche Inc., priority 2012, dated 2016).
